Results: ChEMBL document CHEMBL1201862, “PubChem BioAssay data set” (2004)
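Values below derive from 48-hour exposures of cells grown in 96-well plates, with endpoints linearly interpolated between the two concentrations bracketing the appropriate inhibition level. The concentration for 50% growth inhibition is given as GI50.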 Calls of active or inactive are those of the source. No stated cut-off is given here; in the data, active = GI50 up to about 1.1 µM and inactive = higher.

Assays:
Test in all cases: inhibition of tumour cell growth, NCI panel, 48 h
[1] = tested on: UACC-62
[2] = tested on: LOX IMVI
[3] = tested on: NCI-H460
[4] = tested on: SK-MEL-28
[5] = tested on: SK-MEL-5
[6] = tested on: NCI/ADR-RES
[7] = tested on: HT-29
[8] = tested on: EKVX
[9] = tested on: SF-295
[10] = tested on: Malme-3M
[11] = tested on: HOP-92
[12] = tested on: HCT-116
[13] = tested on: HCT-15
[14] = tested on: MCF7
[15] = tested on: M14
[16] = tested on: SK-MEL-2
[17] = tested on: NCI-H226
[18] = tested on: M19-MEL
[19] = tested on: OVCAR-4
[20] = tested on: XF498

SMILES	GI50 [1]	GI50 [2]	GI50 [3]	GI50 [4]	GI50 [5]	GI50 [6]	GI50 [7]	GI50 [8]	GI50 [9]	GI50 [10]	GI50 [11]	GI50 [12]	GI50 [13]	GI50 [14]	GI50 [15]	GI50 [16]	GI50 [17]	GI50 [18]	GI50 [19]	GI50 [20]
CC(NC(C#N)CC12CC3CC(CC(C3)C1)C2)c1ccccc1 (stereo unspecified)	84.3 µM (inactive)	17.8 µM (inactive)	26.5 µM (inactive)	> 100 µM (inactive)	> 100 µM (inactive)	> 100 µM (inactive)	31.3 µM (inactive)	> 100 µM (inactive)	20.6 µM (inactive)	> 100 µM (inactive)	0.753 µM (active)	34.8 µM (inactive)	56.8 µM	48.9 µM (inactive)	54.8 µM (inactive)					
C=CCn1c(=O)c(C)cn(COCCO)c1=O		> 100 µM (inactive)	> 100 µM (inactive)	> 100 µM (inactive)	> 100 µM (inactive)	> 100 µM (inactive)	> 100 µM (inactive)	> 100 µM (inactive)		> 100 µM (inactive)	> 100 µM (inactive)			> 100 µM (inactive)	> 100 µM (inactive)	> 100 µM (inactive)	> 100 µM (inactive)			
COc1ccc(C(=O)/C(Br)=C/C(=O)O)cc1	7.91 µM (inactive)	20.5 µM (inactive)	23.2 µM (inactive)	23.3 µM (inactive)	20.7 µM (inactive)	21.3 µM (inactive)	76.7 µM (inactive)	37.8 µM (inactive)	37.9 µM (inactive)	14.8 µM (inactive)	28.4 µM (inactive)		23.5 µM	9.75 µM (inactive)	26.2 µM (inactive)	9.48 µM (inactive)	27.3 µM (inactive)	14.5 µM (inactive)	32.7 µM (inactive)	4.28 µM (inactive)
CC(=O)C(C(=O)C(=O)Nc1cc(Cl)c(Cl)cc1Cl)c1csc(N)n1 (stereo unspecified)	> 100 µM (inactive)	> 100 µM (inactive)	> 100 µM (inactive)	> 100 µM (inactive)	> 100 µM (inactive)		> 100 µM (inactive)	> 100 µM (inactive)	> 100 µM (inactive)		> 100 µM (inactive)	> 100 µM (inactive)	> 100 µM		> 100 µM (inactive)	> 100 µM (inactive)	> 100 µM (inactive)	> 100 µM (inactive)	> 100 µM (inactive)	> 100 µM (inactive)
CCOC(=O)Oc1ccc(C(CNC(C)C)OC(=O)OCC)cc1OC(=O)OCC (stereo unspecified)	> 100 µM (inactive)	> 100 µM (inactive)	> 100 µM (inactive)	> 100 µM (inactive)	> 100 µM (inactive)	> 100 µM (inactive)	> 100 µM (inactive)	> 100 µM (inactive)	> 100 µM (inactive)	> 100 µM (inactive)	> 100 µM (inactive)	> 100 µM (inactive)	> 100 µM	> 100 µM (inactive)	> 100 µM (inactive)	> 100 µM (inactive)	> 100 µM (inactive)		65.5 µM (inactive)	
CC12Nc3ccccc3C1=C(c1ccccc1)CC1C(=O)OC(=O)C12 (stereo unspecified)	> 100 µM (inactive)	> 100 µM (inactive)	> 100 µM (inactive)	> 100 µM (inactive)	> 100 µM (inactive)		> 100 µM (inactive)	> 100 µM (inactive)	> 100 µM (inactive)	> 100 µM (inactive)	> 100 µM (inactive)	> 100 µM (inactive)	> 100 µM		> 100 µM (inactive)	> 100 µM (inactive)		> 100 µM (inactive)	> 100 µM (inactive)	> 100 µM (inactive)
CN(C)c1ccc(N2C(=S)SC(=N\c3ccccc3)/C2=N/c2ccccc2)cc1	> 100 µM (inactive)		> 100 µM (inactive)	> 100 µM (inactive)	> 100 µM (inactive)	> 100 µM (inactive)			> 100 µM (inactive)	> 100 µM (inactive)		> 100 µM (inactive)	> 100 µM	> 100 µM (inactive)	> 100 µM (inactive)	> 100 µM (inactive)	> 100 µM (inactive)		> 100 µM (inactive)	
COC(=O)C1=C(OC(=O)/C=C/c2ccc(Cl)cc2)C(C(=O)OC)[C@@]2(O)[C@@H](C(=O)OC)[C@H](C)C[C@@H]1[C@@H]2C(=O)OC (stereo partly specified)	17.6 µM (inactive)	13.1 µM (inactive)	27.2 µM (inactive)	26.4 µM (inactive)	17.2 µM (inactive)	21.6 µM (inactive)	26.1 µM (inactive)	22.5 µM (inactive)	29.4 µM (inactive)	11.3 µM (inactive)		23.8 µM (inactive)	19.3 µM		23.2 µM (inactive)	15.7 µM (inactive)	20.7 µM (inactive)		27.1 µM (inactive)	
O=C(Nc1nc2ccc([N+](=O)[O-])cc2s1)C(=O)C(C(=O)c1ccccc1F)C1OC(=O)c2ccccc21 (stereo unspecified)	29.6 µM (inactive)	27 µM (inactive)	40.5 µM (inactive)	32.1 µM (inactive)	71.9 µM (inactive)		40 µM (inactive)	22.1 µM (inactive)	56 µM (inactive)		> 100 µM (inactive)	37.1 µM (inactive)	31.2 µM		56.2 µM (inactive)	20.4 µM (inactive)		31 µM (inactive)	46.8 µM (inactive)	48.3 µM (inactive)
NCCCNCCSSCc1ccccc1CSSCCNCCCN	34.1 µM (inactive)	61.1 µM (inactive)	> 100 µM (inactive)	75 µM (inactive)	79.3 µM (inactive)		14.2 µM (inactive)	> 100 µM (inactive)	> 100 µM (inactive)	90.6 µM (inactive)	25.9 µM (inactive)		57.1 µM		31.9 µM (inactive)	> 100 µM (inactive)		50 µM (inactive)	70.6 µM (inactive)	85.1 µM (inactive)
COc1ccc2c(c1)c1cc(OC)ccc1n2CCCCOc1ccc(-c2c3ccccc3c(-c3ccc(OCCCCn4c5ccc(OC)cc5c5cc(OC)ccc54)cc3)c3ccccc23)cc1	> 100 µM (inactive)	> 100 µM (inactive)		> 100 µM (inactive)				> 100 µM (inactive)		> 100 µM (inactive)	> 100 µM (inactive)	> 100 µM (inactive)	> 100 µM		> 100 µM (inactive)	> 100 µM (inactive)	> 100 µM (inactive)	> 100 µM (inactive)	> 100 µM (inactive)	> 100 µM (inactive)
C[S+](C)([O-])=Nn1c(=O)n2n(c1=O)[C@H]1CC[C@@H]2C1	> 100 µM (inactive)	> 100 µM (inactive)	> 100 µM (inactive)	> 100 µM (inactive)	> 100 µM (inactive)	> 100 µM (inactive)	> 100 µM (inactive)	> 100 µM (inactive)	> 100 µM (inactive)	> 100 µM (inactive)	> 100 µM (inactive)		> 100 µM	> 100 µM (inactive)	> 100 µM (inactive)	> 100 µM (inactive)	> 100 µM (inactive)			
